The results in this text go back to US12624034B2, “Non-covalent modifiers of AKT1 and uses thereof” (Terremoto Biosciences, Inc., priority 2023, dated 2026).

The target in one assay is T1, AKT2 (Homo sapiens, UniProt P31751).
T1 construct: expressed in transfected cells; host or cells: HEK293
As to the kind of experiment: Live cell AKT2 target engagement by NanoBRET competitive probe displacement in HEK293 cells. Type of assay: binding. Conditions: 2 h at 37° C., read-out: AKT2 IC50.

A further assay concerns the target T2, AKT1 WT (Homo sapiens, UniProt P31749).
T2 construct: expressed in transfected cells; host or cells: HEK293
As to the kind of experiment: Live cell AKT1 WT target engagement by NanoBRET competitive probe displacement in HEK293 cells. Format: binding. Conditions: 2 h at 37° C., read-out: AKT1 WT IC50. In general terms: Bioluminescence resonance energy transfer reports proximity on the nanometre scale.

The mark [1] stands for this setting: NanoBRET live cell target engagement, HEK293 cells.
[2] abbreviates: NanoBRET competitive probe displacement, live HEK293 cells.

Each structure is given as a SMILES string. Like-named read-outs stand apart in the source and are kept apart here.

T2 sequence (P31749 whole entry): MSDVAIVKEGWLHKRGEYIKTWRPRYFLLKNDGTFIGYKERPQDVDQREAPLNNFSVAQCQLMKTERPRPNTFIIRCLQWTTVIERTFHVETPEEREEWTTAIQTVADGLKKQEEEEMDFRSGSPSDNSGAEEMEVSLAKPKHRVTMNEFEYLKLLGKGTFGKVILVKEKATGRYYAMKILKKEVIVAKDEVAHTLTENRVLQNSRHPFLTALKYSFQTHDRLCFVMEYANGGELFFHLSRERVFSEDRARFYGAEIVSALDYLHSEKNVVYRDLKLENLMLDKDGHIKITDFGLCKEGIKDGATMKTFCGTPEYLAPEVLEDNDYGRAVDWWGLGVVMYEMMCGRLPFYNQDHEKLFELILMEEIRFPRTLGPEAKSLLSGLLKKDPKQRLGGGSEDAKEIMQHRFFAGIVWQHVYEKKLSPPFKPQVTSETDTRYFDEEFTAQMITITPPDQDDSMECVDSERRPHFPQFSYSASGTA
T1 sequence (P31751 whole entry): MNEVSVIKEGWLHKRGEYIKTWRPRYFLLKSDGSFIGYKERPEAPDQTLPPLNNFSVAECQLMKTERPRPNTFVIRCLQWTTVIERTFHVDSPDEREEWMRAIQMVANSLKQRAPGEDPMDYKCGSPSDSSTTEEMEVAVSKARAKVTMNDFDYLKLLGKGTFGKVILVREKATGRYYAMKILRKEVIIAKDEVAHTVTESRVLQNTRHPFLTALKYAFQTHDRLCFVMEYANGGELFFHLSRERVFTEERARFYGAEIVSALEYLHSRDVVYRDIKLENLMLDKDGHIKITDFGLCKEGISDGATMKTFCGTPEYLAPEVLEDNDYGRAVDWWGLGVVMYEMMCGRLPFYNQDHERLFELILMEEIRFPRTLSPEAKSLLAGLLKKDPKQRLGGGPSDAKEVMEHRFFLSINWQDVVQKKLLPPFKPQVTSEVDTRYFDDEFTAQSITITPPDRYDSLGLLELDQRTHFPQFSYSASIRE

For orientation: IC50 means the concentration that gives 50% inhibition. For `Cc1ncccc1C(=O)N[C@H]1CCc2cc(-n3c(-c4cccnc4N)nc4c(C(F)F)cc(-n5cccn5)nc43)ccc21` [Compound 213], the IC50 on AKT2 (setting [1]) stood at 60.6 nM; at AKT1 WT (setting [1]) it was 13.8 nM.
For `Nc1ncccc1-c1nc2ccc(-n3cccn3)nc2n1-c1ccc2c(c1)CCC2n1cccn1` (stereo not shown) [Compound 325, 3-(3-(1-(1H-pyrazol-1-yl)-2,3-dihydro-1H-inden-5-yl)-5-(1H-pyrazol-1-yl)-3H-imidazo[4,5-b]pyridin-2-yl)pyridin-2-amine], the IC50 at AKT2 (setting [1]) was determined as 4290 nM; on AKT1 WT (setting [1]), 120 nM.
With `Nc1ncccc1-c1nc2ccc(-n3cccn3)nc2n1-c1ccc2c(c1)CC[C@@H]2NC1CCN(c2ccccc2)C1` (stereo partly shown) [Compound 470], the results for the IC50 on AKT2 (setting [2]) and at AKT1 WT (setting [2]) were 777 nM and 68.2 nM, respectively.
On to `Nc1ncccc1-c1nc2ccc(-n3cccn3)nc2n1-c1ccc2c(c1)CC[C@@H]2NCc1ccc(C(F)F)nc1` [Compound 84], for which the figures for the IC50 at AKT2 (setting [1]) and on AKT1 WT (setting [1]) were 1960 nM and 113 nM, respectively.
Regarding `Cc1cn2cc(C(=O)N[C@H]3CCc4cc(-n5c(-c6cccnc6N)nc6ccc(-n7cccn7)nc65)ccc43)ccc2n1` [Compound 72], the concentration for half-maximal inhibition (IC50) on AKT2 (setting [1]) was 28.1 nM; on AKT1 WT (setting [1]), 7.95 nM.
For the compound `Cc1ccc(C(=O)N[C@H]2CCc3cc(-n4c(-c5cccnc5N)nc5ccc(-n6cnc(C)n6)nc54)ccc32)cn1` [Compound 417, (S)—N-(5-(2-(2-aminopyridin-3-yl)-5-(3-methyl-1H-1,2,4-triazol-1-yl)-3H-imidazo[4,5-b]pyridin-3-yl)-2,3-dihydro-1H-inden-1-yl)-6-methylnicotinamide], the 50% inhibitory concentration (IC50) on AKT2 (setting [2]) was determined as 561 nM; on AKT1 WT (setting [2]), 19.6 nM.
As for `Nc1ncccc1-c1nc2ccc(C#CC3CC3)nc2n1-c1ccc2c(c1)CC[C@@H]2NC1CN(C(=O)C2CC2)C1` [Compound 506], the IC50 is 8940 nM at AKT2 (setting [2]) and 96.9 nM at AKT1 WT (setting [2]).
In the case of `CC#Cc1ccc2nc(-c3cccnc3N)n(-c3ccc4c(c3)CC[C@@H]4NC(=O)c3ccc(C)nc3)c2n1` [Compound 265], the IC50 at AKT2 (setting [1]) is 1870 nM; at AKT1 WT (setting [1]) it was 35.9 nM.
Turning to `Nc1ncccc1-c1nc2ccc(-n3cccn3)nc2n1-c1ccc2c(c1)CC[C@@H]2NC(=O)c1cc2n(n1)CCO2` [Compound 242], the IC50 at AKT2 (setting [1]) stood at 3220 nM; at AKT1 WT (setting [1]), 70 nM.
Consider `Nc1ncccc1-c1nc2ccc(-n3cccn3)nc2n1-c1ccc2c(c1)CC[C@@H]2NCc1ccccn1` [Compound 131], for which the IC50 at AKT2 (setting [1]) stood at 785 nM; on AKT1 WT (setting [1]) it was 42.5 nM.
As for `Nc1ncccc1-c1nc2ccc(C#CC3COC3)nc2n1-c1ccc2c(c1)CC[C@@H]2NC(=O)c1ccc(C(F)F)nc1` [Compound 408], the values for the IC50 at AKT2 (setting [2]) and on AKT1 WT (setting [2]) were 2300 nM and 91.1 nM, respectively.
For `Nc1ncccc1-c1nc2ccc(-n3nccn3)nc2n1-c1ccc2c(c1)CC[C@@H]2NC(=O)c1cnc(C(F)F)c(F)c1` [Compound 121], the half-inhibitory concentration (IC50) at AKT2 (setting [1]) came to 1590 nM; on AKT1 WT (setting [1]), 36.6 nM.
Regarding `CCOc1ccn(-c2ccc3nc(-c4cccnc4N)n(-c4ccc5c(c4)CC[C@@H]5NC4CCN(C(=O)C5CC5)CC4)c3n2)n1` [Compound 486], the IC50 at AKT2 (setting [2]) was 1070 nM; on AKT1 WT (setting [2]), 25.1 nM.
Consider `Cc1ncc(C(=O)N[C@H]2CCc3cc(-n4c(-c5cccnc5N)nc5ccc(-n6cccn6)nc54)ccc32)c(C(F)F)n1` [Compound 151, (S)—N-(5-(2-(2-aminopyridin-3-yl)-5-(1H-pyrazol-1-yl)-3H-imidazo[4,5-b]pyridin-3-yl)-2,3-dihydro-1H-inden-1-yl)-4-(difluoromethyl)-2-methylpyrimidine-5-carboxamide], for which the IC50 on AKT2 (setting [1]) stood at 366 nM; on AKT1 WT (setting [1]), 22.8 nM.
In the case of `Nc1ncccc1-c1nc2ccc(-n3cccn3)nc2n1-c1ccc2c(c1)CC[C@@H]2n1cnnc1-c1ccccc1` [Compound 178], the figures for the IC50 at AKT2 (setting [1]) and on AKT1 WT (setting [1]) were 3520 nM and 88.2 nM, respectively.
Take `Cc1ccc(S(=O)(=O)N[C@H]2CCc3cc(-n4c(-c5cccnc5N)nc5ccc(-n6cccn6)nc54)ccc32)cn1` [Compound 82]: the IC50 at AKT2 (setting [1]) was determined as 2140 nM; at AKT1 WT (setting [1]), 65.8 nM.
In the case of `COc1cncc(-c2ccc3nc(-c4cccnc4N)n(-c4ccc5c(c4)CC[C@@H]5NC4CCN(C(=O)C5CC5)CC4)c3n2)n1` [Compound 577], the half-maximal inhibitory concentration (IC50) at AKT2 (setting [2]) turned out to be 904 nM; at AKT1 WT (setting [2]), 87.9 nM.
As to `Cc1nnn([C@H]2CCc3cc(-n4c(-c5cccnc5N)nc5ccc(-n6cccn6)nc54)ccc32)c1C` [Compound 249, (S)-3-(3-(1-(4,5-dimethyl-1H-1,2,3-triazol-1-yl)-2,3-dihydro-1H-inden-5-yl)-5-(1H-pyrazol-1-yl)-3H-imidazo[4,5-b]pyridin-2-yl)pyridin-2-amine], the figures for the IC50 at AKT2 (setting [1]) and on AKT1 WT (setting [1]) were 368 nM and 21.8 nM, respectively.
`Cc1ncccc1C(=O)N[C@H]1CCc2cc(-n3c(-c4cccnc4N)nc4c(C#N)cc(-n5cccn5)nc43)ccc21` [Compound 125]: the IC50 at AKT2 (setting [1]) turned out to be 201 nM; on AKT1 WT (setting [1]), 13.3 nM.
Consider `COc1ccn(-c2ccc3nc(-c4cccnc4N)n(-c4ccc5c(c4)CC[C@@H]5NC4[C@@H]5COC[C@H]4CN(C(=O)C4CC4)C5)c3n2)n1` (single isomer, unassigned) [Compound 523], for which the values for the concentration for half-maximal inhibition (IC50) on AKT2 (setting [2]) and at AKT1 WT (setting [2]) were 1740 nM and 48.4 nM, respectively.
`Nc1ncccc1-c1nc2ccc(-n3cccn3)nc2n1-c1ccc2c(c1)CC[C@@H]2NC(=O)c1cccnc1Cl` [Compound 108]: the IC50 on AKT2 (setting [1]) was 223 nM; on AKT1 WT (setting [1]), 18.8 nM.
For the compound `Nc1ncccc1-c1nc2ccc(-n3cccn3)nc2n1-c1ccc2c(c1)CC[C@@H]2NC(=O)c1cc(F)cc(F)c1` [Compound 331], the IC50 at AKT2 (setting [1]) is 41.3 nM; at AKT1 WT (setting [1]), 19.1 nM.
Turning to `Cc1ncccc1-c1cn([C@H]2CCc3cc(-n4c(-c5cccnc5N)nc5ccc(-n6cccn6)nc54)ccc32)nn1` [Compound 254], the IC50 was determined as 753 nM on AKT2 (setting [1]) and 23.9 nM on AKT1 WT (setting [1]).
For `Cc1nc(C(F)F)sc1C(=O)N[C@H]1CCc2cc(-n3c(-c4cccnc4N)nc4ccc(-n5nccn5)nc43)ccc21` [Compound 541], the figures for the IC50 on AKT2 (setting [2]) and at AKT1 WT (setting [2]) were 556 nM and 5.46 nM, respectively.
Consider `Nc1ncccc1-c1nc2ccc(-n3cccn3)nc2n1-c1ccc2c(c1)CC[C@@H]2NC(=O)c1ccnc(OC2COC2)c1` [Compound 164, (S)—N-(5-(2-(2-aminopyridin-3-yl)-5-(1H-pyrazol-1-yl)-3H-imidazo[4,5-b]pyridin-3-yl)-2,3-dihydro-1H-inden-1-yl)-2-(oxetan-3-yloxy)isonicotinamide], for which the concentration for half-maximal inhibition (IC50) amounted to 180 nM on AKT2 (setting [1]) and 15.3 nM on AKT1 WT (setting [1]).
Take `Nc1ncccc1-c1nc2ccc(-n3cccn3)nc2n1-c1ccc2c(c1)CC[C@@H]2NC(=O)c1ccc2[nH]nnc2c1` [Compound 190]: the IC50 at AKT2 (setting [1]) was 122 nM; on AKT1 WT (setting [1]), 25.5 nM.
Regarding `COC1CN(c2ccn(-c3ccc4nc(-c5cccnc5N)n(-c5ccc6c(c5)CC(F)[C@@H]6NC5CCN(C(=O)C6CC6)CC5)c4n3)n2)C1` (stereo partly shown) [Compound 553], the IC50 at AKT2 (setting [2]) is 344 nM; at AKT1 WT (setting [2]) it was 7.04 nM.
As for `Cc1ncsc1C(=O)N[C@H]1CCc2cc(-n3c(-c4cccnc4N)nc4ccc(-n5cccn5)nc43)ccc21` [Compound 99], the IC50 at AKT2 (setting [1]) turned out to be 260 nM; at AKT1 WT (setting [1]), 28.4 nM.
Take `Nc1ncccc1-c1nc2ccc(-n3cccn3)nc2n1-c1ccc2c(c1)CC[C@@H]2NC(=O)c1ccnc2c1OC(F)(F)O2` [Compound 317]: the half-maximal inhibitory concentration (IC50) on AKT2 (setting [1]) came out at 1730 nM; on AKT1 WT (setting [1]) it was 131 nM.
